Data as given in patent US6759544B2, “Antimicrobially active acesulfame complexes, process for their preparation and their use” (Nutrinova Nutrition Specialties & Food Ingredients GmbH, priority 2001, dated 2004).

Key:
Format in all cases: cell-based
[1] = test system: Staphylococcus aureus (ATCC 6538); experiment: Minimum inhibitory concentration, Staphylococcus aureus
Protocol: (§1) Method for Determining the Minimum Inhibitory Concentration
(§2) The samples, to determine the minimum inhibitory concentration, are dissolved in WSH (water of standardized hardness) and mixed with twice-concentrated Caso-Bouillon pH 5.5. After inoculation with the test organisms, the solutions of the test organisms Streptococcus mutans (ATCC 25175) and Actinomyces odontolyticus (ATCC 17982) were overlayered with paraffin and incubated for a period of three days at a temperature of 37° C.
(§3) The solution of the test organism Staphylococcus aureus (ATCC 6538) was incubated for two days at 37° C. The samples were then streaked onto Caso agar and incubated for two days at 37° C.

[2] = test system: Actinomyces odontolyticus (ATCC 17982); experiment: Minimum inhibitory concentration, Actinomyces odontolyticus
Protocol: as §1, §2, §3

[3] = test system: Streptococcus mutans (ATCC 25175); experiment: Minimum inhibitory concentration, Streptococcus mutans
Protocol: as §1, §2, §3

[4] = Staphylococcus aureus (ATCC 6538), Caso-Bouillon pH 5.5, two days at 37° C.
[5] = Actinomyces odontolyticus (ATCC 17982), Caso-Bouillon pH 5.5, overlayered with paraffin, three days at 37° C.
[6] = Streptococcus mutans (ATCC 25175), Caso-Bouillon pH 5.5, overlayered with paraffin, three days at 37° C.

SMILES | Minimum inhibitory concentration ([1]; pH 5.5) | Minimum inhibitory concentration ([2]; pH 5.5) | Minimum inhibitory concentration ([3]; pH 5.5) | also measured
CCCCCCCCCCCCCCCC[n+]1ccccc1.O.[Cl-] [Cetylpridinium chloride.H2O, cetylpyridinium chloride.H2O] | 0.13966 mM | 0.00279 mM | 0.00279 mM | –
O.O.O.O.O.O.O.O=S(=O)([O-])[O-].[Zn+2] [ZnSO4.7H2O, zinc(II) sulfate heptahydrate] | 17.5 mM | 17.5 mM | 17.5 mM | –
CC1=CC(=O)[N-]S(=O)(=O)O1.CCCCCCCCCCCCCCCC[n+]1ccccc1 [Cetylpyridinium(acesulfame), Acesulfame-Cetylpyridinium Complex] | 0.10703 mM | 0.00214 mM | 0.00214 mM | –
CC1=CC(=O)[N-]S(=O)(=O)O1.[Ag+] [Ag(acesulfame).0.25H2O, Acesulfame-Silver Complex] | – | – | – | Minimum inhibitory concentration [1, 4]: 3.65 mM; Minimum inhibitory concentration [2, 5]: 18.31 mM; Minimum inhibitory concentration [3, 6]: 18.31 mM
O.O.O.O.O.O=S(=O)([O-])[O-].[Cu+2] [CuSO4.5H2O, copper(II) sulfate pentahydrate] | 20.13 mM | 20.13 mM | 4.01 mM | –
O=[N+]([O-])[O-].[Ag+] [AgNO3, silver(I) nitrate] | – | – | – | Minimum inhibitory concentration [1, 4]: 5.91 mM; Minimum inhibitory concentration [2, 5]: 5.91 mM; Minimum inhibitory concentration [3, 6]: 5.91 mM
CC1=CC(=O)[N]([Zn]([OH])([OH])[N]2C(=O)C=C(C)OS2(=O)=O)S(=O)(=O)O1 [Zn(acesulfame)2.2H2O, Acesulfame-Zinc Complex] | – | – | – | MIC ([1]; ATCC6538, 48 h, Staphylococcus aureus (ATCC 6538), Caso-Bouillon pH 5.5, two days at 37° C.): 23.7 mM; MIC ([2]; Schaalia odontolytica, ATCC17982, 72 h, Actinomyces odontolyticus (ATCC 17982), Caso-Bouillon pH 5.5, overlayered with paraffin, three days at 37° C.): 11.8 mM; MIC ([3]; ATCC25175, 72 h, Streptococcus mutans (ATCC 25175), Caso-Bouillon pH 5.5, overlayered with paraffin, three days at 37° C.): 23.7 mM
